Measurements from patent US20070015813A1, “Treatment of protein folding disorders” (QUEEN'S UNIVERSITY AT KINGSTON, priority 2005, published 2007).

Columns and labels:
tau441 = target: T1, tau441 (Homo sapiens, UniProt P10636); test: Kinetic Thioflavin S (ThS) assay of tau441 aggregation; format: biochemical; conditions: for tau aggregation in the absence of heparin inducer: heparin omitted
T1 construct: (expression construct); host or cells: E. coli BL21 D3
Procedure: The tau441 expression construct [L Buee et al. (2000). Brain Research Reviews 33:95-130] was purchased (Bioclon Inc., San Diego, Calif.) already transformed in BL21 D3 bacterial cells (Novagen/EMD Biosciences) for protein expression. Cells were grown and induced with IPTG according to Novagen's protocol. To lyse cells, Cellytic B reagent (Sigma) was used with lysozyme protease inhibitors (Sigma) and benzonase (Novagen/EMD Biosciences), according to manufacturer's methods. Lysate was cleared by centrifugation for 20 min at 10,000 RPM (SS34 rotor, Sorvall RC2b centrifuge) at 4° C. Protein was purified from the soluble fraction. Once purified, tau441 was stored at −78° C. as frozen aliquots (8.3 mg/mL, 60 μL) in Tris-HCl (50 mM, pH 7.4) until used.
Frozen aliquots of tau441 (8.3 mg/mL, 60 μL) in Tris-HCl (50 mM, pH 7.4) were allowed to thaw at room temperature (RT) before being diluted with Tris-HCl (2.64 mL, 50 mM, pH 7.4) containing dithiothreitol (DTT, 1 mM) to prevent disulfide bonds and NaN3 (50 μM) to prevent bacterial growth. After allowing to stand at RT for 1 h, Thioflavin S (ThS) was added (2.5 μL, 10.8 mM), followed by the aggregation inducer heparin (20 μL, 1.08 g/mL).
Aliquots (200 μL) of Aβ^1-40, Aβ^1-42, tau441 or α-synuclein with ThT or ThS were added to wells of a black polystyrene 96-well plate, followed by 2 μL of a compound in DMSO (various concentrations), or DMSO alone (controls). For α-synuclein, sodium dodecyl sulfate solution (2.0 μL, 30 mM) was also added to each well to induce aggregation. Incubations were performed in triplicate and were taken to contain 20 μM Aβ^1-40 or Aβ^1-42, 6 μM tau441 or 4 μM α-synuclein. Plates were covered with clear polystyrene lids and incubated at 37° C. in a GENios microplate reader obtained from Tecan Group Limited, Mannedorf, Zurich. For Aβ^1-40, tau441 and α-synuclein, fluorescence readings (λex=450 nm, λem=480 nm) were taken every 15 min., after first shaking at high intensity for 15 sec. and allowing to settle for 10 sec. before each reading. For Aβ^1-42, readings were taken every 5 min.
Aggregation conditions: tau441 at a concentration of either 10 μM (A) or 4 μM (B,C,D,E) was incubated in covered black 96-well polystyrene microplates alone or with 100 (A) or 50 μM compound (B,C,D,E), 5 μM ThS, pH 7.4, Tris-HCl (50 mM) containing NaN3 (50 μM), and either 1% MeOH (A) or 1% DMSO (B,C,D,E). Plates were heated at 37° C. in a Tecan GENios microplate reader. All incubations performed in triplicate, except for compound 0c in (A), which had n=1. Fluorescence readings: fluorescence measured every 15 min. (λex=450 nm, λem=480 nm) after shaking for 15 sec. and pausing 10 sec. before taking measurement. Values are the mean of three replicates. Error bars, sometimes not visible due to small size, represent standard deviation of the mean.
Aggregation conditions: tau441 at a concentration of 4 μM was incubated in covered black 96-well polystyrene microplates alone or with 50 μM (A,B,C) or 1 mM compound (D), 5 μM ThS, pH 7.4, Tris-HCl (50 mM) containing NaN3 (50 μM), and 1% DMSO. Plates were heated at 37° C. in a Tecan GENios microplate reader. All incubations performed in triplicate. Fluorescence readings: fluorescence measured every 15 min. (λex=450 nm, λem=480 nm) after shaking for 15 sec. and pausing 10 sec. before taking measurement. Values are the mean of three replicates. Error bars, sometimes not visible due to small size, represent standard deviation of the mean.

Aβ1-40 [1] = target: T2, Aβ1-40 (Homo sapiens, UniProt P05067); test: 1H NMR binding of bi-aromatics to Aβ1-40; conditions: 100 μM Aβ1-40, 50 μM compound, D2O, 27° C.
T2 construct: Aβ^1-40 (AnaSpec, San Jose, Calif., lots 14212, 34862 and 34889); purchased AnaSpec, San Jose, Calif
T2 sequence (P05067 672-711 limits assumed): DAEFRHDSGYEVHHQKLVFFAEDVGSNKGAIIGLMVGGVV
Procedure: Aβ^1-40 was dissolved in HFIP (1 mL) and sonicated (20 min) to disassemble any pre-formed aggregates. The HFIP was removed with a stream of Ar(g) and the waxy residue dissolved in 2.2 mL buffer (Tris-d11, 20 mM in D2O). Incubations (0.500 mL) were made directly in thin-walled NMR tubes, to which were added compound (2.5 μL, 10 mM in DMSO-d6) or vehicle. An identical incubation lacking Aβ^1-40 was used as compound reference. Spectra were obtained for Aβ^1-40 alone (100 μM), compound alone (50 μM) and for a mixture of both (100 μM Aβ^1-40, 50 μM compound). Spectra were recorded at 500 MHz and 27° C. (300K), with 674 scans obtained for each.
FIG. 9 depicts ^1H NMR spectra identifying binding of 5-bromo-5′-carboxy-3,3′-bis-indolyl (0c) to Aβ^1-40. Spectra were obtained for Aβ^1-40 alone (100 μM, A), compound alone (50 μM, C) and for a mixture of both (100 μM Aβ^1-40, 50 μM compound, B). Spectra were recorded at 500 MHz and 27° C. (300K) in D2O containing 1% DMSO-d6, and 674 scans were obtained for each.

Aβ1-40 [2] = target: T2, Aβ1-40; test: Circular dichroism studies of Aβ1-40; format: biochemical; conditions: 40 μM Aβ1-40, 200 μM compound, pH 7.4, 37° C.
Procedure: Aliquots (220 μL) of pretreated Aβ^1-40 (40 μM in 20 mM Tris-HCl, pH 7.4) were added directly to 1 mm quartz circular dichroism (CD) cells, followed by 2.2 μL compound (of varying concentration) in methanol or methanol alone (controls). Solutions were incubated at 37° C. for up to 6 days. CD scans were performed on a J-810 spectropolarimeter (obtained from Jasco Corporation, Tokyo, Japan) between 190 and 250 nm, with a resolution of 0.1 nm and bandwidth of 1 nm. Ten scans were obtained for each reading. Spectra had background CD of the buffer subtracted and were left unsmoothed. Readings were performed at 37° C.
FIG. 6 depicts circular dichroism (CD) of Aβ^1-40 alone (A) and in the presence of 0j (B) and morin (C). Conditions: 40 μM Aβ^1-40, 200 μM compound (B,C), pH 7.4, Tris-HCl (20 mM), 1% MeOH. Prior to experiment, Aβ^1-40 pretreated with 1,1,1,3,3,3-hexafluoroisopropanol (HFIP).

T1 sequence (P10636 1-441 isoform P10636-8): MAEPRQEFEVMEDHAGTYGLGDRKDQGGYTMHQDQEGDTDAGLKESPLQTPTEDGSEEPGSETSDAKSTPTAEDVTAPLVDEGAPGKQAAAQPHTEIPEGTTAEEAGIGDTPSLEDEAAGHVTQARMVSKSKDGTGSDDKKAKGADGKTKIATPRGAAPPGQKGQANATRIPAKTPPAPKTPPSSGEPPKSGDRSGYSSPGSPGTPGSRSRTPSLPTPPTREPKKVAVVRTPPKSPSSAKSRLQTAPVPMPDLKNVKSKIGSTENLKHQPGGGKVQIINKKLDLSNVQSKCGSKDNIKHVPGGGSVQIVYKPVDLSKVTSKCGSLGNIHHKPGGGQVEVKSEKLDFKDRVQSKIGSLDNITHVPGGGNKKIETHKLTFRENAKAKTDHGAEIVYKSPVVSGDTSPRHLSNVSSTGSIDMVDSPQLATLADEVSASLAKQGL

Row | SMILES | tau aggregation in the absence of heparin inducer (tau441) | binding to Aβ1-40 by 1H NMR (signal broadening) (Aβ1-40 [1]) | random coil (RC)→β-sheet transition of Aβ1-40 by circular dichroism (Aβ1-40 [2]) | effect on tau fibrillization (ThS fluorescence) (tau441; tau441 4 or 10 μM, 50 to 100 μM compound, 5 μM ThS, heparin inducer, pH 7.4, 37° C.)
1 | O=C(O)c1ccc2[nH]cc(-c3c[nH]c4ccc(Br)cc34)c2c1 [0c, 3-(5-bromo-indol-3-yl)-indole-5-carboxylic Acid] | inhibited tau aggregation | binding | this transition was inhibited | –
2 | O=c1c(O)c(-c2ccc(O)cc2O)oc2cc(O)cc(O)c12 [morin] | inhibited tau aggregation | – | – | inhibition of tau fibrillization
